# Source: US9988627B2, “Formats for organic compounds for use in RNA interference” (NOVARTIS AG, priority 2013, dated 2018)
# “Also recorded” adds a separate entry of the source.
# Test system: FVII (Factor VII)
# Assay: RNA interference of 3′-capped mF7-III siRNAs against FVII (FIG. 2)
# Assay type: cell-based, mouse
# Details: 19-mer blunt-ended mF7-III siRNA, A12S17
row,Compound,ability to mediate RNA interference
1,"C1C2CC3CC1CC(C2)C3 [Adamantane, adamantane]",allow the RNAi agent to perform RNA interference
2,"OCCCCCCO [C6, 1,6-hexane-diol]",allow the RNAi agent to perform RNA interference
3,"OCCOCCOCCO [Triethylene glycol, triethylene glycol]",allow the RNAi agent to perform RNA interference

# Test system: Hepcidin (HAMP) mRNA
# Assay: Hepcidin mRNA down regulation in HuH-7 cells by 18-mer HAMP siRNA-PAZ ligand conjugates
# Assay type: cell-based, Homo sapiens
# Details: format S402+ribitol+MOE clamp
# Text: Potency of 18-mer HAMP (Hepcidin) siRNA-PAZ Ligand Conjugates is studied.
# A variety of constructs were made using the same two sequences. […] A variety of 3′ end caps is also used.
# Hepcidin mRNA down regulation in HuH-7 cells is studied at 3 doses.
# Two test sequences used are hs_HAMP_400 and 402. “hs” indicates “Homo sapiens”. 400 is a sequence beginning at position 400 and 402 is an overlapping sequence […]
# Various other hs_HAMP 400 and 402 are depicted in FIG. 5A (Guide or antisense strand) and 5B (corresponding Sense strand).
# This Table indicates the Nickname (“Oligo Identifier”) for the 3′ end cap, and the DMT, Succinate and Carboxylate variants thereof; the Carboxylate Kd; the KD (knockdown) mediated by a Hepcidin RNAi agent comprising the 3′ end cap (format: S402+ribitol+MOE clamp) at 5 nM in vitro; and the approximate (approx.) IC50
row,Compound,Hepcidin KD at 5 nM in vitro (%)
1,"OCCCCCCO [C6, 1,6-hexane-diol]",66%

# Test system: human APOC3
# Assay: 18-mer with internal spacer RNAi agents, residual mRNA in Huh7 at 15 nM
# Assay type: cell-based
# Details: not given
# Text: In the various RNAi agents described in this example, a nucleotide at any of positions 1 to 18 was individually replaced by a spacer subunit, and RNA interference activity was retained. The 3′ end of each strand terminates in a phosphate or modified internucleoside linker and further comprises, in 5′ to 3′ order, a second spacer, a second phosphate or modified internucleotide linker, and a 3′ end cap.
# Similarly, U027, A027, G027 indicate that the nucleotides U, A or G, respectively, are absent and have been replaced by a spacer, which is ribitol. The target used in human APOC3. The numbers in columns 2 represent residual mRNA levels; thus, 5.8 in column 2, row 2, indicates residual mRNA level of 5.8% or 94.2% gene knockdown. SD, standard deviation.
row,Compound,% Res mRNA_Huh7_15 nM
1,"1 (sense GACAGUAUUCUCAGUGCU; antisense AGCACUGAGAAUACUGU; chemical modifications, end caps, chemistry not fully specified) [compound 1]",5.8%
2,"3 (sense GACAGUAUUCUCAGUGCU; antisense AGCACUGAGAAUACUUC; chemical modifications, end caps, chemistry not fully specified) [compound 3]",11.3%
3,"4 (sense GACAGUAUUCUCAGUGCU; antisense AGCACUGAGAAUACGUC; chemical modifications, end caps, chemistry not fully specified) [compound 4]",9.5%
4,"5 (sense GACAGUAUUCUCAGUGCU; antisense AGCACUGAGAAUAUGUC; chemical modifications, end caps, chemistry not fully specified) [compound 5]",25.6%
5,"6 (sense GACAGUAUUCUCAGUGCU; antisense AGCACUGAGAAUCUGUC; chemical modifications, end caps, chemistry not fully specified) [compound 6]",33.1%
6,"7 (sense GACAGUAUUCUCAGUGCU; antisense AGCACUGAGAAACUGUC; chemical modifications, end caps, chemistry not fully specified) [compound 7]",22%
7,"8 (sense GACAGUAUUCUCAGUGCU; antisense AGCACUGAGAUACUGUC; chemical modifications, end caps, chemistry not fully specified) [compound 8]",23.8%
8,"9 (sense GACAGUAUUCUCAGUGCU; antisense AGCACUGAGAUACUGUC; siRNA; 2'-modified nucleotides, phosphates, 3' end caps, further chemistry not given here) [compound 9]",56.7%
9,"10 (sense GACAGUAUUCUCAGUGCU; antisense AGCACUGAAAUACUGUC; siRNA; modified with OMe, F, MOE, ribitol spacers, code 006 undefined, further chemistry not given here) [compound 10]",55%
10,"11 (sense GACAGUAUUCUCAGUGCU; antisense AGCACUGGAAUACUGUC; siRNA; modified with OMe, F, MOE, ribitol spacers, code 006 undefined, further chemistry not given here) [compound 11]",22.3%
11,"12 (sense GACAGUAUUCUCAGUGCU; antisense AGCACUAGAAUACUGUC; siRNA; modified with OMe, F, MOE, ribitol spacers, code 006 undefined, further chemistry not given here) [compound 12]",10.5%
12,"13 (sense GACAGUAUUCUCAGUGCU; antisense AGCACGAGAAUACUGUC; siRNA; modified with OMe, F, MOE, DNA, ribitol spacers, code 006 undefined, further chemistry not given here) [compound 13]",4.4%
13,"14 (sense GACAGUAUUCUCAGUGCU; antisense AGCAUGAGAAUACUGUC; siRNA; modified with OMe, F, MOE, ribitol spacers, code 006 undefined, further chemistry not given here) [compound 14]",3.2%
14,"15 (sense GACAGUAUUCUCAGUGCU; antisense AGCCUGAGAAUACUGUC; siRNA; modified with OMe, F, MOE, ribitol spacers, code 006 undefined, further chemistry not given here) [compound 15]",18.3%
15,"16 (sense GACAGUAUUCUCAGUGCU; antisense AGACUGAGAAUACUGUC; siRNA; modified with OMe, F, MOE, ribitol spacers, code 006 undefined, further chemistry not given here) [compound 16]",6.8%
16,"17 (sense GACAGUAUUCUCAGUGCU; antisense ACACUGAGAAUACUGUC; chemical modifications, end caps, chemistry not fully specified) [compound 17]",57.4%
17,"18 (sense GACAGUAUUCUCAGUGCU; antisense GCACUGAGAAUACUGUC; chemical modifications, end caps, chemistry not fully specified) [compound 18]",7.6%
18,"19 (sense GACAGUAUUCUCAGUGCU; antisense AGCACUGAGAAUACUGUC; chemical modifications, end caps, chemistry not fully specified) [compound 19]",6.3%
19,"20 (sense GACAGUAUUCUCAGUGCU; antisense AGCACUGAGAAUACUGUC; siRNA; chemical modifications, end caps, further chemistry not given here) [compound 20]",9.7%
20,"21 (sense GpGpApC004pApGpU004pApU004pU004pC004pU004pC004pApGpU004pGpC004pU004pU002pU002; antisense ApGpCpApCpU004pGpApGpApApU004pApCpU004pGpU004pCpCpU002pU002; chemical modifications, as printed in the source, key not given here) [compound 21]",6.5%
21,"COc1ccc(C(OCc2cc(Br)cc(CO)c2)(c2ccccc2)c2ccc(OC)cc2)cc1 [compound 2, (3-((bis(4-methoxyphenyl)(phenyl)methoxy)methyl)-5-bromophenyl)methanol]",3.4%

# Test system: hepcidin (Hamp1) mRNA in liver
# Assay: In vivo hepcidin knockdown in mouse liver (mRNA-qPCR), LNP569 Hamp254 18-mers
# Details: 1×3 mg/kg i.v., 48 h (day 2)
# Experimental: PBS: phosphate-buffered saline (negative control). This experiment was performed in vivo in the mouse. These were single 3 mg/kg dose i.v., and Hepcidin mRNA knockdown in liver was measured after 2 and 7 days.
# LNP569 is a lipid nanoparticle preparation of the RNAi agent.
# Two timepoints—48 and 168 hrs post-injection (both 3 mg/kg).
# Assess hepcidin knockdown in liver (mRNA-qPCR)
row,Compound,Hepcidin knockdown in vivo at 48 hours post-dose
1,"OCCCCCCO [C6, 1,6-hexane-diol]",more efficacious than the 21-mer format; also recorded: able to mediate Hepcidin knockdown
